Results: ChEMBL document CHEMBL4368940, “Development of a novel NURR1/NOT agonist from hit to lead and candidate for the potential treatment of Parkinson's disease” (Bioorg Med Chem Lett, 2019)
The source made the active and inactive calls. The rule behind the calls is not given here.

Tests used:
[1] = Cmax in C57BL/6 mouse brain at 3 mg/kg, iv administered as single dose; format: ADME, organism-based; parameters: dose 3 mg/kg, route intravenous
Rattus norvegicus [2] = experiment: Antiinflammatory activity in Sprague-Dawley rat assessed as inhibition of LPS-induced TNFalpha release at 30 mg/kg; format: functional
[3] = AUC in C57BL/6 mouse brain at 10 mg/kg, po administered as single dose; format: ADME, organism-based
[4] = Cardiotoxicity in iv dosed anaesthetized dog assessed as electrophysiological changes administered as single dose measured after 5 mins; format: toxicity, organism-based, Canis lupus familiaris; conditions: in vivo
[5] = Drug level in anaesthetized guinea pig heart administered as single iv dose; format: ADME, organism-based, Cavia porcellus; conditions: in vivo, read-out: Drug uptake
[6] = Apparent half-life of the terminal disposition phase in C57BL/6 mouse plasma at 10 mg/kg, po administered as single dose; format: ADME, organism-based; conditions: read-out: t1/2 lambda z (converted)
[7] = biological target: Voltage-gated inwardly rectifying potassium channel KCNH2 (Homo sapiens, UniProt Q12809); experiment: Inhibition of human ERG
Voltage-gated inwardly rectifying potassium channel KCNH2, sequence (Q12809 whole entry): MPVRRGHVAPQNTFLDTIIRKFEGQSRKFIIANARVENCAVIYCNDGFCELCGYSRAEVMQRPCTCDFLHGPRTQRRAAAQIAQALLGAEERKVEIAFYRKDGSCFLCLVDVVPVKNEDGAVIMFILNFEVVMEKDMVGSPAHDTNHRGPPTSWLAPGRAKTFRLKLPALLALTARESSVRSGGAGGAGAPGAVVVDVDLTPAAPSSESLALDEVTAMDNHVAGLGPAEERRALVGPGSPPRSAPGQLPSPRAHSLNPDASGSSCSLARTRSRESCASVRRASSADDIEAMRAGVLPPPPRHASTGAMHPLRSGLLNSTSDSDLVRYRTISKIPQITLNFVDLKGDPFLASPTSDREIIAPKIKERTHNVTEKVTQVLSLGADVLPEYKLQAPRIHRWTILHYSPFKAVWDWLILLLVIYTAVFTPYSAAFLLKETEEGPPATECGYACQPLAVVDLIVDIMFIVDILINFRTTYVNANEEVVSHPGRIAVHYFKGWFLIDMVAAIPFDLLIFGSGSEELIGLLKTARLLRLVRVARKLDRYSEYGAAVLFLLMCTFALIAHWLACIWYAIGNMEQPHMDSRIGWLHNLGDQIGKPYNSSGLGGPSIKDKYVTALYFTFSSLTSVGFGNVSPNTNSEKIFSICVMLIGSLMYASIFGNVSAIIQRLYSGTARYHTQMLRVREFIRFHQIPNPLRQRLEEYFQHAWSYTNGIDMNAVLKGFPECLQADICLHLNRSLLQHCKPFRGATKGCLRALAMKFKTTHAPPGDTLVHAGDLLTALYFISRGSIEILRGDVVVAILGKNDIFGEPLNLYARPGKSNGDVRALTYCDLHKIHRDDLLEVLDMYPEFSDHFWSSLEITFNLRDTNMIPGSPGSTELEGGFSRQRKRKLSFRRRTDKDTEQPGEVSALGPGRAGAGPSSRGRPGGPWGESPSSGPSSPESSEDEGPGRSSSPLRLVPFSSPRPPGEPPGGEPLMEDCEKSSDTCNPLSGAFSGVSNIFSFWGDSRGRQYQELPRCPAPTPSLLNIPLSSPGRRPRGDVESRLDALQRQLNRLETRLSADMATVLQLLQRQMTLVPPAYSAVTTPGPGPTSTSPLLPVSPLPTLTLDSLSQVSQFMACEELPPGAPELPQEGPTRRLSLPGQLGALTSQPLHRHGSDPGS

[8] = biological target: Nuclear receptor subfamily 4 group A member 2 (Rattus norvegicus) (UniProt Q07917); experiment: Agonist activity at Nurr1 in rat mesencephalic primary neurons assessed as increase in tyrosine hydroxylase expression at 3 uM
Nuclear receptor subfamily 4 group A member 2 (Rattus norvegicus), sequence (Q07917 whole entry): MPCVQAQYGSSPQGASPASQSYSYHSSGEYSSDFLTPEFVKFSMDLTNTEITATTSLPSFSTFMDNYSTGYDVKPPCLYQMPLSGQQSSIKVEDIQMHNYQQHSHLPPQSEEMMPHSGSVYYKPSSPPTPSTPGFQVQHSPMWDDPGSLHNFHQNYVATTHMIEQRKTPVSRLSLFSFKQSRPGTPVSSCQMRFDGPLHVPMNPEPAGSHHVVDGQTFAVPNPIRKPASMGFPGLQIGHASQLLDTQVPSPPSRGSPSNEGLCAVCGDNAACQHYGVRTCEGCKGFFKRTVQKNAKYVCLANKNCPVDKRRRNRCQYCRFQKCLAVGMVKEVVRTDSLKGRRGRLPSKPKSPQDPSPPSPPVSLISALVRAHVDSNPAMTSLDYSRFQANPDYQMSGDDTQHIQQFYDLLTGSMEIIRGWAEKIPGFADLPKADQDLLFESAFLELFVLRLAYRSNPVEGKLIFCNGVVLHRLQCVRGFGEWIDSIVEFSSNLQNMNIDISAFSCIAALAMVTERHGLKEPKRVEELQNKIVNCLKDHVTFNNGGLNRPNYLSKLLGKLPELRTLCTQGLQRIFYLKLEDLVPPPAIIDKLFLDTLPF

[9] = biological target: Nuclear receptor subfamily 4 group A member 2 (Mus musculus) (UniProt Q06219); experiment: Agonist activity at Nurr1 in co-culture of mouse primary neurons and microglia assessed as inhibition of LPS-induced neurotoxicity by measuring neuroprotection at 3 uM; parameters: scale not given: the % may be the effect or the level left
Nuclear receptor subfamily 4 group A member 2 (Mus musculus), sequence (Q06219 whole entry): as the sequence (Q07917 whole entry) above, with G134S, R182P counted along it

[10] = Apparent half-life of the terminal disposition phase in C57BL/6 mouse brain at 10 mg/kg, po administered as single dose; format: ADME, organism-based; conditions: read-out: t1/2 lambda z (converted)
[11] = biological target: Nuclear receptor subfamily 4 group A member 2 (Mus musculus) (UniProt Q06219); experiment: Agonist activity at Nurr1 in mouse MG7 cells assessed as inhibition of LPS-induced IL1beta secretion at 3 uM; format: cell-based
[12] = Cardiotoxicity in iv dosed anaesthetized guinea pig assessed as electrophysiological changes administered as single dose measured after 5 mins; format: toxicity, organism-based, Cavia porcellus; conditions: in vivo
[13] = Apparent half-life of the terminal disposition phase in C57BL/6 mouse brain at 3 mg/kg, iv administered as single dose; format: ADME, organism-based; conditions: read-out: t1/2 lambda z (converted)
[14] = Drug level in anaesthetized dog heart administered as single iv dose; format: ADME, organism-based, Canis lupus familiaris; conditions: in vivo, read-out: Drug uptake
[15] = Cardiotoxicity in iv dosed anaesthetized dog assessed as electrocardiographic changes administered as single dose measured after 5 mins; format: toxicity, organism-based, Canis lupus familiaris; conditions: in vivo
[16] = Ratio of AUC in C57BL/6 mouse brain to plasma at 10 mg/kg, po administered as single dose; format: ADME, organism-based; conditions: read-out: Ratio AUC
[17] = AUC in C57BL/6 mouse plasma at 10 mg/kg, po administered as single dose; format: ADME, organism-based
[18] = AUC in C57BL/6 mouse plasma at 3 mg/kg, iv administered as single dose; format: ADME, organism-based
Rattus norvegicus [19] = species: Rattus norvegicus; experiment: Neuroprotective activity in poly(I:C)-induced Sprague-Dawley rat Parkinson's disease lesion model assessed as reduction in IL6 level; format: functional, organism-based
[20] = Ratio of AUC in C57BL/6 mouse brain to plasma at 3 mg/kg, iv administered as single dose; format: ADME, organism-based; conditions: read-out: Ratio AUC
[21] = Apparent half-life of the terminal disposition phase in C57BL/6 mouse plasma at 3 mg/kg, iv administered as single dose; format: ADME, organism-based; conditions: in vivo
[22] = Cmax in C57BL/6 mouse brain at 10 mg/kg, po administered as single dose; format: ADME, organism-based; parameters: dose 10 mg/kg, route oral
[23] = Tmax in C57BL/6 mouse plasma at 10 mg/kg, po administered as single dose; format: ADME, organism-based
Canis familiaris = experiment: Hemodynamic activity iv dosed anaesthetized dog administered as single dose measured after 5 mins; format: ADME, organism-based, Canis lupus familiaris; conditions: in vivo
Rattus norvegicus [24] = species: Rattus norvegicus; experiment: Neuroprotective activity in poly(I:C)-induced Sprague-Dawley rat Parkinson's disease lesion model assessed as reduction in brain gliosis; format: functional, organism-based
[25] = AUC in C57BL/6 mouse brain at 3 mg/kg, iv administered as single dose; format: ADME, organism-based
[26] = Clearance in human hepatocytes assessed per million cells; format: ADME, cell-based, Hepatocyte
[27] = biological target: Nuclear receptor subfamily 4 group A member 2 (Homo sapiens, UniProt P43354); experiment: Agonist activity at full-length Gal4-fused NOT (unknown origin) expressed in CHO cells by luciferase reporter gene assay; format: cell-based; conditions: read-out: EC50
Nuclear receptor subfamily 4 group A member 2, sequence (P43354 whole entry, the tested form may be a part): as the sequence (Q07917 whole entry) above, with S131T, R182P, D354E counted along it

[28] = Cmax in C57BL/6 mouse plasma at 10 mg/kg, po administered as single dose; format: ADME, organism-based; parameters: dose 10 mg/kg, route oral
[29] = Cmax in C57BL/6 mouse plasma at 3 mg/kg, iv administered as single dose; format: ADME, organism-based; parameters: dose 3 mg/kg, route intravenous
[30] = Cardiotoxicity in iv dosed anaesthetized guinea pig assessed as electrocardiographic changes administered as single dose measured after 5 mins; format: toxicity, organism-based, Cavia porcellus; conditions: in vivo
Cavia porcellus = experiment: Hemodynamic activity iv dosed anaesthetized guinea pig administered as single dose measured after 5 mins; format: ADME, organism-based; conditions: in vivo

Compound `CC(C)(O)c1cccc(-c2ccc3nc(-c4ccc(Cl)cc4)cn3c2)c1` has a Cmax [1] of 2630 ng/mL, an inhibition in vivo at 30 mg/kg (Rattus norvegicus [2]) of 47% and an AUC [3] of 55600 ng·h/mL. The Activity [4] was “Non-Toxic”, the concentration [5] was at most 17 µM and the half-life [6] was 194 h. It also gave an IC50 [7] of 1500 nM, an Activity [8] of 188 to 284% and an Activity [9] of 86 to 99%. The half-life [10] was 197 h, the inhibition [11] was 28 to 46% and the Activity [12] was “Non-Toxic”. For the same compound, the half-life [13] was 91.2 h, the concentration [14] was 40 µM and the Activity [15] was “Non-Toxic”. The Kp [16] was 0.8, the AUC [17] was 70300 ng·h/mL and the AUC [18] was 20600 ng·h/mL. For the same compound, the Activity (Rattus norvegicus [19]) was “Active”, the Kp [20] was 0.7 and the t1/2 lambda z [21] was 98.4 h. The Cmax [22] was 3080 ng/mL, the Tmax [23] was 24 h and the Activity (Canis familiaris) was “Non-Toxic”. The Activity (Rattus norvegicus [24]) was “Active”, the AUC [25] was 15000 ng·h/mL and the CLH [26] was 0.051 mL/h. It also gave an EC50 [27] of 218 nM, a Cmax [28] of 4170 ng/mL and a Cmax [29] of 4870 ng/mL. For the same compound, the Activity [30] was “Non-Toxic” and the Activity (Cavia porcellus) was “Non-Toxic”.
